Laboratory results reported in article PMC10285453 (Comprehensive Psychoneuroendocrinology, 2023).

Key:
[1] = test system: primary polyclonal rabbit anti-OXT IgG (Cayman Chemical Company OXT EIA, secondary monoclonal mouse anti-rabbit IgG); assay: OXT EIA cross-reactivity, Cayman Chemical Company kit; type: binding
[2] = test system: primary polyclonal rabbit anti-OXT IgG (Cayman Chemical Company OXT EIA, secondary monoclonal mouse anti-rabbit IgG); conditions: competitive EIA; ref manufacturer (Cayman Chemical Company); cited from earlier work
[3] = Reversed phase SPE of OXT from pure solution; type: physicochemical; conditions: 200 pg/ml pure OXT solution, 0.1% TFA-H2O, separate C-18 column elutions, Enzo Life Sciences EIA
[4] = same ultrafiltration columns, cited from earlier work
[5] = test system: primary polyclonal rabbit anti-OXT IgG (Enzo Life Sciences OXT EIA, secondary polyclonal goat anti-rabbit IgG); conditions: competitive EIA; published IC50; ref manufacturer (Enzo Life Sciences); cited from earlier work

With Immunoglobulin G as the substance, how does the “cross-reactivity (IC50(OXT)/IC50(interfering protein))” value (shortened to “cross-reactivity”) [1] read?
Its value is under 0.01%.

With Immunoglobulin M as the substance, how does the “cross-reactivity” value [1] read?
The value was under 0.01%.

With Transferrin as the substance, how does the “cross-reactivity” value [1] read?
Its value is under 0.01%.

With oxytocin [OXT] as the substance, how does the “mean IC50 of the Cayman Chemical Company OXT assay” value [2] read?
The value was 0.08 ng/mL.

What about the “OXT recovered in the eluate, reversed phase SPE” value ([3]; 30–40% ACN range, CV for three columns 30.8–136.5%) of the same substance?
Its value is 10.1–49.1%.

And the “total amount of OXT measured in all fractions (load, wash, eluate) as % of the original sample” value [3]?
Its value is 37.1–92.2%.

What about the “OXT recovery rate from plasma, ultrafiltration” value ([4]; plasma) of the same substance?
The value was 91.8%.

And the “OXT recovery rate from saliva, ultrafiltration” value ([4]; saliva)?
The value was 68.4%.

What about the “IC50 of the Enzo Life Sciences OXT assay” value [5] of the same substance?
The value was 0.228 ng/mL.
